Patent US20180057530A1, “CYCLIC PEPTIDE COMPOUND, AND PREPARATION AND USE THEREOF” (Zhejiang Hisun Pharmaceutical Co., Ltd., priority 2015, published 2018)
Where “and” joins values, the source holds several entries; their conditions need not be identical. Equal entries are not always repeated. Marks after values point to notes of the source that are not given here.

How the values were obtained:
[1] = tested on: human colon cancer cells (HCT-116); assay: MTT tumor cell growth inhibition, HCT-116; format: cell-based; conditions: HCT-116, MTT, 72 hours, relative IC50
From the text: (§1) The tetrazolium salt (MTT) reduction method was used to test the activity of the compounds of the present invention. Human breast cancer cells (MDA-MB-231) (CAS cell library; catalog number: TCHu227), human lung cancer cells (A549) (ATCC® Number: CRM-CCL-185™), human colon cancer cells (HCT-116) (CAS cell library; catalog number: TCHu99), acute monocytic leukemia cells (MV4-11) (ATCC® Number: CRL-9591™), tissue cell lymphoma cells (U-937) (CAS cell library; catalog number: TCHu159), human acute promyelocytic leukemia cells (HL-60) (ATCC® Number: CCL-240™), chronic myelogenous leukemia cells (of K562) (CAS cell library; catalog number: TCHu191), human hepatocellular carcinoma cells (BEL-7404) (CAS cell library; catalog number: TCHu64), human pancreatic cancer cells (BxPC3) (ATCC® Number: […])) and human prostate cancer cells (PC-3) (ATCC®Number: […]) were inoculated in 96-well plates, 90 μL/well, with 3000 to 8000 cells in respective well; in the first row of plate, 100 μL/well culture medium was added; the 96-well plate was pre-incubated in an incubator at 37° C., 5% CO2, and 100% relative humidity for 24 hours.
(§2) A compound was weighed and configured to a 10 mM/L stock solution, and the compound was diluted three-fold sequentially from the highest concentration of 2 millimoles (mM); 95 μl the corresponding cell medium was added to each well of a V-bottom dispensing plate; 5 μl of the compound on a 200× plate was transferred to a 10× dispensing plate according to the concentration; 5 μl of dimethylsulfoxide (DMSO) was evenly mixed in the corresponding 95 μl cell culture medium as a vehicle control. 10 μl of the compound-medium in each well of the 10× dispensing plate was added to a 96-well plate already plated with cells. […]
(§3) After the compound for cells was treated for 72 hours, 20 microliters of 5 mg/ml MTT was added to each well; all the steps need to be aseptic. […] The absorbance at 490 nm was read on a SpectraMax M2e instrument. The compound activity (relative IC50) was calculated using GraphPad Prism software.

[2] = tested on: tissue cell lymphoma cells (U-937); assay: MTT tumor cell growth inhibition, U-937; format: cell-based; conditions: Homo sapiens; U-937, MTT, 72 hours, relative IC50
From the text: as §1, §2, §3

[3] = tested on: acute monocytic leukemia cells (MV4-11); assay: MTT tumor cell growth inhibition, MV4-11; format: cell-based; conditions: Homo sapiens; MV4-11, MTT, 72 hours, relative IC50
From the text: as §1, §2, §3

[4] = tested on: human prostate cancer cells (PC-3); assay: MTT tumor cell growth inhibition, PC-3; format: cell-based; conditions: PC-3, MTT, 72 hours, relative IC50
From the text: as §1, §2, §3

[5] = tested on: human hepatocellular carcinoma cells (BEL-7404); assay: MTT tumor cell growth inhibition, BEL-7404; format: cell-based; conditions: BEL-7404, MTT, 72 hours, relative IC50
From the text: as §1, §2, §3

[6] = tested on: chronic myelogenous leukemia cells (K562); assay: MTT tumor cell growth inhibition, K562; format: cell-based; conditions: Homo sapiens, 72 hours, relative IC50
From the text: as §1, §2, §3

[7] = tested on: human pancreatic cancer cells (BxPC3); assay: MTT tumor cell growth inhibition, BxPC3; format: cell-based; conditions: BXPC-3, 72 hours, relative IC50
From the text: as §1, §2, §3

blood cells = assay: Effect on blood phase, complete blood count (CBC) analysis; format: in vivo, BAB-C mice; conditions: 0.5 mg/kg; for PLT / RBC / WBC: mean±SD
Method: BAB-C mice (6 to 8 weeks old, a half being males and the other half females, weighing about 18 g-25 g, supplier: Beijing Vital River Laboratory Animal Technology Co., Ltd.) were raised for one week and then divided into three groups: normal control group, Romidepsin group, and compound A group. The normal group was injected with the vehicle; the drug group was injected with 0.5 mg/kg of the drug; 24 hours and 48 hours respectively after administration, a complete blood count (CBC) analysis was performed; for all the data, mean±standard deviation (mean±SD) was adopted; T tests were performed between inter-group data.

[8] = tested on: human lung cancer cells (A549); assay: MTT tumor cell growth inhibition, A549; format: cell-based; conditions: 72 hours, relative IC50
From the text: as §1, §2, §3

[9] = tested on: human lung cancer cell line NCI-H460; assay: In vivo pharmacodynamic study of compound A, NCI-H460 nude mice transplanted tumor model; set-up: species or system BALB/C nude mice; conditions: q4d, 4x
Method: (§4) Female BALB/C nude mice 6 weeks to 8 weeks old and weighing about 19 g to 29 g were taken (Supplier: Beijing Vital River Laboratory Animal Technology Co., Ltd.) and raised for a week. A human cancer nude mice […] transplanted tumor model was established: Human breast cancer cell line MDA-MB-231 (ATCC® Number: HTB-26™) and human lung cancer cell line NCI-H460 (ATCC® Number: HTB-177™) were incubated. The monolayer tumor cells were digested and detached; then, they were collected and resuspended in a serum-free culture medium, and then were adjusted to a concentration of 2×10^6/0.2 mL. They were put into an iced box and brought to an animal house. A syringe with a No. 6 needle was used to directly take a 0.2 mL cell suspension and transplanted it into the rear subcutaneous scapular regions of the left axillaries of the nude mice at 2×10^6/0.2 mL per mouse. Tumor volumes were measured once every 2 days to 3 days. After two weeks, tumor-bearing nude mice with vigorous tumor growth and no ulceration were selected, the tumors were removed from them under sterile conditions. The tumor tissues were cut to about 2 mm to 3 mm in diameter and inoculated in the rear subcutaneous scapular regions of the left axillaries of the nude mice. After passage for three generations, when the tumor volume grew to 100 mm^3, nude mice with tumor masses that were too large or too small were removed and randomly grouped for administration.
(§5) The mice were randomly divided into five groups, including the negative control group (vehicle), positive control group (Romidepsin, 2.4 mg/kg), treatment group with the high, medium, and low doses of compound A (respectively 7.2 mg/kg, 4.8 mg/kg, 2.4 mg/kg, wherein the high dose was lower than the maximum tolerated dose, MTD); there were six nude mice in each group; intravenous administration was given every 4 days; 4 doses were given. During the period, the weights and tumor volumes of the animals were measured every 2 days, and the number of animal deaths was recorded. 24 hours after the last administration, the animals were sacrificed. The tumor volumes, tumor weights, and body weights of nude mice were measured; tumor volume growth curves, nude mice weight growth curves and tumor inhibition rates, mortality of the animals were plotted; the relative tumor proliferation rate T/C (%) was calculated; according to the formula T/C (%)=TRTV/CRTV*100%. (TRTV: treatment group RTV; CRTV: negative control group RTV, relative tumor volume RTV=Vt/V0, wherein V0 is the tumor volume at the time of administration by group; Vt is the post-administration tumor volume).

[10] = tested on: Human breast cancer cell line MDA-MB-231; assay: In vivo pharmacodynamic study of compound A, MDA-MB-231 nude mice transplanted tumor model; set-up: species or system BALB/C nude mice; conditions: MDA-MB-231 model, q4d, 4x
Method: as §4, §5

[11] = tested on: Human breast cancer cells (MDA-MB-231); assay: MTT tumor cell growth inhibition, MDA-MB-231; format: cell-based; conditions: MDA-MB-231, MTT, 72 hours, relative IC50
From the text: as §1, §2, §3

tumor cells = assay: MTT tumor cell growth inhibition, summary over the cell line panel; format: cell-based; conditions: ten tumor cell lines of Table 2, MTT, 72 hours; read-out: IC50 of tumor cell proliferation inhibition, span over the tested cell lines
From the text: as §1, §2, §3

[12] = tested on: human acute promyelocytic leukemia cells (HL-60); assay: MTT tumor cell growth inhibition, HL-60; format: cell-based; conditions: HL-60, MTT, 72 hours, relative IC50
From the text: as §1, §2, §3

MDA-MB-231 breast cancer = assay: In vivo efficacy study of compound B, xenografted MDA-MB-231 breast cancer; set-up: species or system BALB/c nude mice; conditions: once a week for four weeks; for Day 28 tumor volume: mean ± standard error
Method: Female BALB/C nude mice 6 weeks to 8 weeks old and weighing about 19 g to 29 g were taken and raised for one week (supplier: Beijing Vital River Laboratory Animal Technology Co., Ltd.) MDA-MB-231 (ATCC® Number: HTB-26™) breast cancer cells were cultured in vitro; the culture conditions were: 10% fetal bovine serum was added to an L-15 medium, 37° C., and 0% CO2. Passage was performed twice a week. When the cells were in the exponential growth phase, the cells were collected, counted, and inoculated. […] The cells were suspended in phosphate buffered saline (PBS) and Matrigel (1:1) was added. A total of 50 mice were inoculated. […] The experimental indicator was to examine whether the tumor growth was inhibited, delayed, or subsided. Tumor diameter was measured three times a week with a vernier caliper. The formula for calculating tumor volume is as follows: […] The antitumor efficacy of the compound was evaluated with T/C (%) and of TGI. […] T0 indicates the mean tumor volume of the treatment group at the time of administration by cage; Vi indicates the mean tumor volume of the vehicle group on the same day; V0 indicates the mean tumor volume of the vehicle group at the time of administration by cage. At the end of the experiment, the tumors were stripped, weighed, and photographed.

[13] = mice, 24 h after administration
[14] = mice, 48 h after administration

Row | Structure (SMILES) | IC50 [1] [nM] | IC50 [2] [nM] | IC50 [3] [nM] | IC50 [4] [nM] | IC50 [5] [nM] | IC50 [6] [nM] | IC50 [7] [nM] | IC50 [8] [nM] | Relative tumor proliferation rates T/C (%) ([9]; 2.4 mg/kg) | Relative tumor proliferation rates T/C (%) ([10]; 2.4 mg/kg) | IC50 [11] [nM] | IC50 (tumor cells) [nM] | IC50 [12] [nM] | Day 28 tumor volume (MDA-MB-231 breast cancer; 6.6 mg/kg intravenous) | T/C (%) (MDA-MB-231 breast cancer; day 28, 6.6 mg/kg intravenous) | TGI (%) (MDA-MB-231 breast cancer; day 28, 6.6 mg/kg intravenous) | further results
1 | C/C=C1\NC(=O)[C@H]2C[S+]([O-])SCC/C=C/[C@H](CC(=O)N[C@H](C(C)C)C(=O)N2)OC(=O)[C@H](C(C)C)NC1=O (stereo partly shown) [Compound A] | 29.3 | 22.8 | 33 | 11.9 | 10 | 23.2 | 13.9 | 10.7 | 44%(2.4 mg/kg, q4d, 4x) | 45.5%(2.4 mg/kg, q4d, 4x) | 9.7 | 9.7 to 35.9 | 35.9 |  |  |  | PLT compared with the normal group (blood cells; mouse, in vivo): significantly decreased; WBCs compared with the normal group (blood cells; mouse, in vivo): no significant difference compared with the normal group; Relative tumor proliferation rates T/C (%) ([9]; 4.8 mg/kg): 38.6%(4.8 mg/kg, q4d, 4x); Relative tumor proliferation rates T/C (%) ([9]; 7.2 mg/kg): 25.2%(7.2 mg/kg, q4d, 4x); Relative tumor proliferation rates T/C (%) ([10]; 4.8 mg/kg): 35.4%(4.8 mg/kg, q4d, 4x); Relative tumor proliferation rates T/C (%) ([10]; 7.2 mg/kg): 29.8%(7.2 mg/kg, q4d, 4x)
2 | C/C=C1\NC(=O)[C@H]2CS[S+]([O-])CC/C=C/[C@H](CC(=O)N[C@H](C(C)C)C(=O)N2)OC(=O)[C@H](C(C)C)NC1=O (stereo partly shown) [Compound B] | 6.1 | 5.4 | 4.8 | 6.1 | 4.9 | 2.6 | 6.5 | 3.6 |  |  | 2 | 2 to 6.5 | 3.4 | 187 ± 29 mm^3 | 4.5 | 95.5 | Day 28 tumor volume (MDA-MB-231 breast cancer; 2.2 mg/kg intravenous): 259 ± 47 mm^3; Day 28 tumor volume (MDA-MB-231 breast cancer; 2.2 mg/kg intravenous, listed as compound B): 259 mm^3; Day 28 tumor volume (MDA-MB-231 breast cancer; 4.4 mg/kg intravenous): 202 ± 38 mm^3; Day 28 tumor volume (MDA-MB-231 breast cancer; 4.4 mg/kg intravenous, listed as compound B): 202 mm^3; Day 28 tumor volume (MDA-MB-231 breast cancer; 6.6 mg/kg intravenous, listed as compound B): 187 mm^3; T/C (%) (MDA-MB-231 breast cancer; day 28, 2.2 mg/kg intravenous): 11.3%; TGI (%) (MDA-MB-231 breast cancer; day 28, 2.2 mg/kg intravenous): 88.7%; T/C (%) (MDA-MB-231 breast cancer; day 28, 4.4 mg/kg intravenous): 5.9%; TGI (%) (MDA-MB-231 breast cancer; day 28, 4.4 mg/kg intravenous): 94.1%
3 | C/C=C1\NC(=O)[C@H]2CSSCC/C=C/[C@H](CC(=O)N[C@H](C(C)C)C(=O)N2)OC(=O)[C@H](C(C)C)NC1=O [Romidepsin, reference compound] | 6.5 | 7.2 | 6.8 | 7.1 | 6.4 | 4.1 | 8.7 | 5.2 | 42.2%(2.4 mg/kg, q4d, 4x) | 48.9%(2.4 mg/kg, q4d, 4x) | 3.6 | 3.6 to 8.7 | 8.6 | 260 mm^3 and 260 ± 103 mm^3 | 11.4 | 88.6 | PLT (blood cells; [13]): 600.56 ± 71.51** 1 × 10*9/L; RBC (blood cells; [13]): 10.30 ± 0.47 1 × 10*12/L; WBC (blood cells; [13]): 4.32 ± 2.61** 1 × 10*9/L; PLT (blood cells; [14]): 431.31 ± 64.96** 1 × 10*9/L; RBC (blood cells; [14]): 10.23 ± 0.78 1 × 10*12/L; WBC (blood cells; [14]): 6.92 ± 3.29** 1 × 10*9/L; WBC count decrease (blood cells; mice, at 24 h, vs normal group): 75%; PLT compared with the normal group (blood cells; mice, at 24 h and 48 h): significantly decreased; WBC count restored to percent of the normal group (blood cells; mice, at 48 h): 40%
